Reference: US7638509B2, “Diene compounds and formulations” (priority 2003, dated 2009)

Assays:
[1] = target: T1, wild-type AR (Homo sapiens, UniProt P10275); experiment: Anti-DHT activity on AR transcription, MMTV-Luc reporter in PC-3 cells transfected with AR; assay type: cell-based; set-up: expressed in transfected cells; host or cells: PC-3; details: PC-3, 1 nM DHT, compound at 0.01, 0.1 or 1 μM, dose-dependent
T1 sequence (P10275 1-920): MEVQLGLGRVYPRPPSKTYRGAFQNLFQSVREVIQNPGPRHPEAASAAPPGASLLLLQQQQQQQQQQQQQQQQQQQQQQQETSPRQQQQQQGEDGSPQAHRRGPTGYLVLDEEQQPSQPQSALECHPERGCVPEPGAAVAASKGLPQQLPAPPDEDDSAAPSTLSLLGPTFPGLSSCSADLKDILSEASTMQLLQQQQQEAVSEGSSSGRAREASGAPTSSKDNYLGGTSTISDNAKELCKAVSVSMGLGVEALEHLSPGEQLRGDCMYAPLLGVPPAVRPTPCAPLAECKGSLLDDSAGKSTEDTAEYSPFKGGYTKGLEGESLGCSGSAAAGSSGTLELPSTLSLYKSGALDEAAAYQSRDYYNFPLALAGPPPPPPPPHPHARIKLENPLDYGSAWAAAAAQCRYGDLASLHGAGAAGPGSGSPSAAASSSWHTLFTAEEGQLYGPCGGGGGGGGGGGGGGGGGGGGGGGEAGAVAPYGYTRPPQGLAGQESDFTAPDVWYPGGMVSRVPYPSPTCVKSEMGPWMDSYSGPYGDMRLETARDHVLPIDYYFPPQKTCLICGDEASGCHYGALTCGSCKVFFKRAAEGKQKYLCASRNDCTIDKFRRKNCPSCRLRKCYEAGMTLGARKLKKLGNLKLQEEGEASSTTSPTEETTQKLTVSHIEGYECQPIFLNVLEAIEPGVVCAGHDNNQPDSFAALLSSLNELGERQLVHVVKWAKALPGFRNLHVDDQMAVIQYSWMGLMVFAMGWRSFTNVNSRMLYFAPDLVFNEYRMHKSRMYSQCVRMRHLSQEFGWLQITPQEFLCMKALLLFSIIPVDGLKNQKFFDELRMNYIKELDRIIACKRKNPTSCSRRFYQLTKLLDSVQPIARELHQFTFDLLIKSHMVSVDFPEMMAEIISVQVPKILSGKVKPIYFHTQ
Protocol: Cell Culture, Transfection, and Reporter Gene Assay. The human prostate cancer cell lines, LNCaP, PC-3, and DU145, and non-prostate cancer cell line COS-1 were maintained in RPMI or Dulbecco's modified Eagle's medium (DMEM) (Life Technologies) supplemented with 10% fetal bovine serum (FBS). Transfections and luciferase (Luc) assays were performed as previously described (Miyamoto, H., Yeh, S., Wilding, G. & Chang, C. (1998) Proc. Natl. Acad. Sci. USA 95, 7379-7384; Miyamoto, H., Rahman, M., Takatera, H., Kang, H.-Y., Yeh, S., Chang, H.-C., Nishimura, K., Fujimoto, N. & Chang, C. (2002) J. Biol. Chem. 277, 4609-4617). Briefly, cells seeded to reach a density of 50-60% confluence in 12 well tissue culture plates were transfected with 1.5 μg of DNA according to “SuperFect transfection” instructions (Qiagen). After 2-3 h incubation, cells were treated with medium supplemented with charcoal-stripped FBS containing either ethanol or ligands for 24 h. The cells were then harvested and whole cell extracts were used for Luc assay. The Luc activity was determined using a Dual-Luciferase Reporter Assay System (Promega) and luminometer.
To accomplish these studies, PC-3 cells were transfected with the wild-type AR expression plasmid pSG5-AR and MMTV-Luc. […] The Luc activity was measured relative to that of ethanol treatment (set as 1-fold). Values from the mean±SD of at least three determinations were used. PC-3 cells were transfected with the pSG5-AR and MMTV-Luc. […] Values from the mean±SD of at least three determinations were obtained.

[2] = target: T1, wild-type AR; experiment: AR transcription, MMTV-Luc reporter in COS-1 cells co-transfected with pSG5-AR; assay type: cell-based; set-up: expressed in transfected cells; host or cells: COS-1
Protocol: Cell Culture, Transfection, and Reporter Gene Assay. The human prostate cancer cell lines, LNCaP, PC-3, and DU145, and non-prostate cancer cell line COS-1 were maintained in RPMI or Dulbecco's modified Eagle's medium (DMEM) (Life Technologies) supplemented with 10% fetal bovine serum (FBS). […] Briefly, cells seeded to reach a density of 50-60% confluence in 12 well tissue culture plates were transfected with 1.5 μg of DNA according to “SuperFect transfection” instructions (Qiagen). After 2-3 h incubation, cells were treated with medium supplemented with charcoal-stripped FBS containing either ethanol or ligands for 24 h. The cells were then harvested and whole cell extracts were used for Luc assay. The Luc activity was determined using a Dual-Luciferase Reporter Assay System (Promega) and luminometer.
The pSG5-AR was co-transfected in COS-1 cells. […] Values were obtained from the mean±SD of at least three determinations. DU145 cells were transfected with the pSG5-AR and MMTV-Luc in the presence or absence of pSG5-ARA70. […] Values were obtained for the mean±SD of at least three determinations.

[3] = tested on: LNCaP cells; experiment: LNCaP cell growth, cell count by hemocytometer; assay type: cell-based, human
Protocol: The mean±SD of three separate experiments was determined. […] Total cell number was counted by hemocytometer. The mean of at least three determinations was determined.

[4] = tested on: estrogen receptor (ER); experiment: Steroid hormone specificity, ER/ERE-Luc in PC-3 cells; assay type: cell-based, human; details: PC-3, ER/ERE-Luc, ADEK at 0.01 mM, 0.1 mM and 1.0 mM, 24 h
Protocol: Cell Culture, Transfection, and Reporter Gene Assay. The human prostate cancer cell lines, LNCaP, PC-3, and DU145, and non-prostate cancer cell line COS-1 were maintained in RPMI or Dulbecco's modified Eagle's medium (DMEM) (Life Technologies) supplemented with 10% fetal bovine serum (FBS). Transfections and luciferase (Luc) assays were performed as previously described (Miyamoto, H., Yeh, S., Wilding, G. & Chang, C. (1998) Proc. Natl. Acad. Sci. USA 95, 7379-7384; Miyamoto, H., Rahman, M., Takatera, H., Kang, H.-Y., Yeh, S., Chang, H.-C., Nishimura, K., Fujimoto, N. & Chang, C. (2002) J. Biol. Chem. 277, 4609-4617). Briefly, cells seeded to reach a density of 50-60% confluence in 12 well tissue culture plates were transfected with 1.5 μg of DNA according to “SuperFect transfection” instructions (Qiagen). […] The Luc activity was determined using a Dual-Luciferase Reporter Assay System (Promega) and luminometer.
Steroid Hormone Specificity of ADEK. To characterize the steroid hormone activity of ADEK, PC-3 cells were transfected with steroid receptor/reporter (progesterone receptor (PR)/MMTV-Luc, glucocorticoid receptor (GR)/MMTV-Luc, or estrogen receptor (ER)/ERE-Luc) and analyzed for expression of the Luc reporter gene. […] The Luc activity was measured relative to that of ETOH treatment (set as 1-fold). […]

[5] = tested on: PSA; experiment: PSA expression in LNCaP cells, Western blot; assay type: cell-based, human; details: 48 h, 1 μM compound + 1 nM DHT
Protocol: Western Blot. […] An antibody for -actin (Santa Cruz Biotechnology) was used as the internal control. Blots were quantitated by Collage software (Fotodyne).
The 33-kDa protein was quantitated. β-Actin expression was used as an internal control. […] The mean±SD of three separate experiments was determined. […] Total cell number was counted by hemocytometer. The mean of at least three determinations was determined.

CC(=O)O[C@H]1C=C[C@@]2(C)C(=CC[C@@H]3[C@@H]2CC[C@@]2(C)[C@H]3CCC23OCCO3)C1 [ADEK, 3β-acetoxy-17,17-ethylenedioxyandrosta-1,5-diene]
DHT-induced AR transactivation suppressed to (Luc activity relative to DHT = 100%) [1]: 30%
relative Luc activity (DHT control = 100%) ([2]; COS-1, 1 nM DHT, compound at 0.01 μM): about 75%
relative Luc activity (DHT control = 100%) ([2]; COS-1, 1 nM DHT, compound at 0.1 μM): about 60%
DHT-induced wild-type AR transcription suppressed to (relative Luc activity, DHT = 100%) ([2]; COS-1, 1 nM DHT, compound at 1 μM): 21%
androgenic activity on wild-type AR transcription (in words) ([2]; COS-1, compared with HF and casodex): lower androgenic activity
effect on LNCaP cell growth, DHT alone or compound with DHT (in words) ([3]; 1 nM DHT, 1 μM compound in presence of DHT): antagonized this DHT effect
effect on LNCaP cell growth in the absence of androgen (in words) ([3]; 1 μM compound, no DHT): marginally increased growth
estrogenic activity (in words) [4]: some estrogenic activity
DHT-induced PSA expression decreased to (DHT = 100%) [5]: 49%
melting point: 105 to 106 °C
